Entries after “also recorded” stand apart in the source; their conditions may differ.
Molecular target: TYK2 (Homo sapiens, UniProt P29597)
Assay: TYK2 protein degradation in NOMO-1 cells by immunoblotting
Format: cell-based
Design: endogenous in cells
Conditions: for TYK2 Degradation (NOMO-1, 10 nM) / TYK2 Degradation (NOMO-1, 100 nM): NOMO-1 cells
Procedure: NOMO-1 cells were treated with CPD-155, CPD-157, and CPD-158 at 0.1, 1, 10, 100 and 1000 nM concentrations for 16 hours. […] Data shown that CPD-155, CPD-157, and CPD-158 are very potent at the reduction protein levels of TYK2.
MOLT-4 or NOMO-1 cells were cultured at 37° C. with 5% CO2 in RPMI 1640 Medium supplemented with 10% fetal bovine serum. Cells were authenticated using the short tandem repeat (STR) assays. Mycoplasma test results were negative.
Cultured cells were washed with cold PBS once and lysed in cold RIPA buffer supplemented with protease inhibitors and phosphatase inhibitors (Beyotime Biotechnology). The solutions were then incubated at 4° C. for 30 minutes with gentle agitation to fully lyse cells. Cell lysates were centrifuged at 13,000 rpm for 10 minutes at 4° C. and pellets were discarded. Total protein concentrations in the lysates were determined by BCA assays (Beyotime Biotechnology). Cell lysates were mixed with Laemmli loading buffer to 1× and heated at 99° C. for 5 min. Proteins were resolved on SDS-PAGE and visualized by chemiluminescence. Images were taken by a ChemiDoc MP Imaging system (Bio-Rad). Protein bands were quantitated using the accompanied software provided by Bio-Rad.

TYK2, sequence (P29597 whole entry): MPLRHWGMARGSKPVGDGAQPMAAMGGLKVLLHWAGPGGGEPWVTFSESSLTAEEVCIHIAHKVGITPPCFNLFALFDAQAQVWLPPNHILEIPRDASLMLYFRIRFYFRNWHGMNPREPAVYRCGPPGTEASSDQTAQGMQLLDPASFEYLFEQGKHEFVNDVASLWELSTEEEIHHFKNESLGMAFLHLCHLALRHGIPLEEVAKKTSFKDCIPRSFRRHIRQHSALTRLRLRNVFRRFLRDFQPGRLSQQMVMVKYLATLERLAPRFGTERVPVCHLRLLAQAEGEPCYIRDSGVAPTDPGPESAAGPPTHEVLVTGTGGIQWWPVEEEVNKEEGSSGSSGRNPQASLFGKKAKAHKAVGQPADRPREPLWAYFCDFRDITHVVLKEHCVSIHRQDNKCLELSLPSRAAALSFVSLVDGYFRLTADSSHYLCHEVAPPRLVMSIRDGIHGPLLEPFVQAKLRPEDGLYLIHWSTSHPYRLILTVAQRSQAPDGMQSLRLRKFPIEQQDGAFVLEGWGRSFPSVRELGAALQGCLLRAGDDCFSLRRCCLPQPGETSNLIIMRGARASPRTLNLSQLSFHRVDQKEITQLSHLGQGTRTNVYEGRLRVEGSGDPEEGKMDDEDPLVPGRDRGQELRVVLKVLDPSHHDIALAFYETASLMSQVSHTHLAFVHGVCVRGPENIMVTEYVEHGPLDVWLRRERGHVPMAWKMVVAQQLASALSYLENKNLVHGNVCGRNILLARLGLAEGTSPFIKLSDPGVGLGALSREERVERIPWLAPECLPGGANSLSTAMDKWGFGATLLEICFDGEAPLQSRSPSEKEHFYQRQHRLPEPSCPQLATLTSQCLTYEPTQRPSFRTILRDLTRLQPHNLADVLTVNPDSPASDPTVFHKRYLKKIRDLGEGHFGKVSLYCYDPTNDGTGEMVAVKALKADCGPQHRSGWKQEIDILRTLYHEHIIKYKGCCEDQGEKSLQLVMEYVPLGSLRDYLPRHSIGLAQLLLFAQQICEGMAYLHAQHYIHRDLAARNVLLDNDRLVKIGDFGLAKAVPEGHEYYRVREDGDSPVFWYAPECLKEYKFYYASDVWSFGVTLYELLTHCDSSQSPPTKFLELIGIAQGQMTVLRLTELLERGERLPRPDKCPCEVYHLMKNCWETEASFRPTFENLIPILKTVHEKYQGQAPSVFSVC

SMILES	TYK2 Degradation (NOMO-1, 10 nM)	TYK2 Degradation (NOMO-1, 100 nM)	Reduction of TYK2 protein levels over a dose range (FIG. 2) (NOMO-1 cells, 0.1, 1, 10, 100 and 1000 nM, 16 hours)
CNC(=O)c1nnc(Nc2ccc(N3CCN(C4CCN(C(=O)CCCCC(=O)N[C@H](C(=O)N5C[C@H](O)C[C@H]5C(=O)N[C@@H](C)c5ccc(-c6scnc6C)cc5)C(C)(C)C)CC4)CC3)cn2)cc1Nc1cccc(-c2ncn(C)n2)c1OC [CPD-147, 6-((5-(4-(1-(6-(((S)-1-((2S,4R)-4-Hydroxy-2-(((S)-1-(4-(4-methylthiazol-5-yl)phenyl)ethyl)carbamoyl)pyrrolidin-1-yl)-3,3-dimethyl-1-oxobutan-2-yl)amino)-6-oxohexanoyl)piperidin-4-yl)piperazin-1-yl)pyridin-2-yl)amino)-4-((2-methoxy-3-(1-methyl-1H-1,2,4-triazol-3-yl)phenyl)amino)-N-methylpyridazine-3-carboxamide]	B (B: <60% TYK2 degradation, and >20% TYK2 degradation)	A (A: ≥60% TYK2 degradation)	
CNC(=O)c1nnc(Nc2ccc(C(=O)NCCOCCNc3ccc4c(c3)C(=O)N(C3CCC(=O)NC3=O)C4=O)cn2)cc1Nc1cccc(-c2ncn(C)n2)c1OC (stereo not drawn) [CPD-168, 6-((5-((2-(2-((2-(2,6-dioxopiperidin-3-yl)-1,3-dioxoisoindolin-5-yl)amino)ethoxy)ethyl)carbamoyl)pyridin-2-yl)amino)-4-((2-methoxy-3-(1-methyl-1H-1,2,4-triazol-3-yl)phenyl)amino)-N-methylpyridazine-3-carboxamide]		C (C: ≤20% TYK2 degradation)	
CNC(=O)c1nnc(Nc2ccc(C(=O)NCCCCCCNc3cccc4c3C(=O)N(C3CCC(=O)NC3=O)C4=O)cn2)cc1Nc1cccc(-c2ncn(C)n2)c1OC (stereo not drawn) [CPD-156, 6-((5-((6-((2-(2,6-Dioxopiperidin-3-yl)-1,3-dioxoisoindolin-4-yl)amino)hexyl)carbamoyl)pyridin-2-yl)amino)-4-((2-methoxy-3-(1-methyl-1H-1,2,4-triazol-3-yl)phenyl)amino)-N-methylpyridazine-3-carboxamide]		B (B: <60% TYK2 degradation, and >20% TYK2 degradation)	
CNC(=O)c1nnc(Nc2ccc(C#CC3CCN(CCCCC(=O)N[C@H](C(=O)N4C[C@H](O)C[C@H]4C(=O)N[C@@H](C)c4ccc(-c5scnc5C)cc4)C(C)(C)C)CC3)cn2)cc1Nc1cccc(-c2ncn(C)n2)c1OC [CPD-160, 6-((5-((1-(5-(((S)-1-((2S,4R)-4-hydroxy-2-(((S)-1-(4-(4-methylthiazol-5-yl)phenyl)ethyl)carbamoyl)pyrrolidin-1-yl)-3,3-dimethyl-1-oxobutan-2-yl)amino)-5-oxopentyl)piperidin-4-yl)ethynyl)pyridin-2-yl)amino)-4-((2-methoxy-3-(1-methyl-1H-1,2,4-triazol-3-yl)phenyl)amino)-N-methylpyridazine-3-carboxamide]		C (C: ≤20% TYK2 degradation)	
CNC(=O)c1nnc(Nc2ccc(C#CC3CCN(C(=O)CCCCCCC(=O)N[C@H](C(=O)N4C[C@H](O)C[C@H]4C(=O)N[C@@H](C)c4ccc(-c5scnc5C)cc4)C(C)(C)C)CC3)cn2)cc1Nc1cccc(-c2ncn(C)n2)c1OC [CPD-119, 6-((5-((1-(8-(((S)-1-((2S,4R)-4-Hydroxy-2-(((S)-1-(4-(4-methylthiazol-5-yl)phenyl)ethyl)carbamoyl)pyrrolidin-1-yl)-3,3-dimethyl-1-oxobutan-2-yl)amino)-8-oxooctanoyl)piperidin-4-yl)ethynyl)pyridin-2-yl)amino)-4-((2-methoxy-3-(1-methyl-1H-1,2,4-triazol-3-yl)phenyl)amino)-N-methylpyridazine-3-carboxamide]		A (A: ≥60% TYK2 degradation)	
CNC(=O)c1nnc(Nc2ccc(C(=O)NCCCCCCNc3ccc4c(c3)C(=O)N(C3CCC(=O)NC3=O)C4=O)cn2)cc1Nc1cccc(-c2ncn(C)n2)c1OC (stereo not drawn) [CPD-165, 6-((5-((6-((2-(2,6-dioxopiperidin-3-yl)-1,3-dioxoisoindolin-5-yl)amino)hexyl)carbamoyl)pyridin-2-yl)amino)-4-((2-methoxy-3-(1-methyl-1H-1,2,4-triazol-3-yl)phenyl)amino)-N-methylpyridazine-3-carboxamide]	C (C: ≤20% TYK2 degradation)	C (C: ≤20% TYK2 degradation)	
CNC(=O)c1nnc(Nc2ccc(N3CCN(C4CCN(C(=O)CCCCCCCCC(=O)N[C@H](C(=O)N5C[C@H](O)C[C@H]5C(=O)N[C@@H](C)c5ccc(-c6scnc6C)cc5)C(C)(C)C)CC4)CC3)cn2)cc1Nc1cccc(-c2ncn(C)n2)c1OC [CPD-151, 6-((5-(4-(1-(10-(((S)-1-((2S,4R)-4-hydroxy-2-(((S)-1-(4-(4-methylthiazol-5-yl)phenyl)ethyl)carbamoyl)pyrrolidin-1-yl)-3,3-dimethyl-1-oxobutan-2-yl)amino)-10-oxodecanoyl)piperidin-4-yl)piperazin-1-yl)pyridin-2-yl)amino)-4-((2-methoxy-3-(1-methyl-1H-1,2,4-triazol-3-yl)phenyl)amino)-N-methylpyridazine-3-carboxamide]	A (A: ≥60% TYK2 degradation)	A (A: ≥60% TYK2 degradation)	
CNC(=O)c1nnc(Nc2ccc(C#CC3CCN(C(=O)CCCCC(=O)N[C@H](C(=O)N4C[C@H](O)C[C@H]4C(=O)N[C@@H](C)c4ccc(-c5scnc5C)cc4)C(C)(C)C)CC3)cn2)cc1Nc1cccc(-c2ncn(C)n2)c1OC [CPD-117, 6-((5-((1-(6-(((S)-1-((2S,4R)-4-Hydroxy-2-(((S)-1-(4-(4-methylthiazol-5-yl)phenyl)ethyl)carbamoyl)pyrrolidin-1-yl)-3,3-dimethyl-1-oxobutan-2-yl)amino)-6-oxohexanoyl)piperidin-4-yl)ethynyl)pyridin-2-yl)amino)-4-((2-methoxy-3-(1-methyl-1H-1,2,4-triazol-3-yl)phenyl)amino)-N-methylpyridazine-3-carboxamide]	C (C: ≤20% TYK2 degradation)	A (A: ≥60% TYK2 degradation)	
CNC(=O)c1nnc(Nc2ccc(C(=O)NCCCCCCCNc3cccc4c3C(=O)N(C3CCC(=O)NC3=O)C4=O)cn2)cc1Nc1cccc(-c2ncn(C)n2)c1OC (stereo not drawn) [CPD-157, 6-((5-((7-((2-(2,6-dioxopiperidin-3-yl)-1,3-dioxoisoindolin-4-yl)amino)heptyl)carbamoyl)pyridin-2-yl)amino)-4-((2-methoxy-3-(1-methyl-1H-1,2,4-triazol-3-yl)phenyl)amino)-N-methylpyridazine-3-carboxamide]	A (A: ≥60% TYK2 degradation)	C (C: ≤20% TYK2 degradation)	concentration-dependently reduced the TYK2 proteins levels; also recorded: highly potent in reducing TYK2 protein levels
CNC(=O)c1nnc(Nc2ccc(N3CCN(C(=O)CCCCCCC(=O)N[C@H](C(=O)N4C[C@H](O)C[C@H]4C(=O)N[C@@H](C)c4ccccc4)C(C)(C)C)CC3)cn2)cc1Nc1cccc(-c2ncn(C)n2)c1OC [CDD-169, 6-((5-(4-(8-(((S)-1-((2S,4R)-4-hydroxy-2-(((S)-1-phenylethyl)carbamoyl)pyrrolidin-1-yl)-3,3-dimethyl-1-oxobutan-2-yl)amino)-8-oxooctanoyl)piperazin-1-yl)pyridin-2-yl)amino)-4-((2-methoxy-3-(1-methyl-1H-1,2,4-triazol-3-yl)phenyl)amino)-N-methylpyridazine-3-carboxamide]	C (C: ≤20% TYK2 degradation)	C (C: ≤20% TYK2 degradation)	
CNC(=O)c1nnc(Nc2ccc(CNC(=O)CCCC(=O)N[C@H](C(=O)N3C[C@H](O)C[C@H]3C(=O)N[C@@H](C)c3ccc(-c4scnc4C)cc3)C(C)(C)C)cn2)cc1Nc1cccc(-c2ncn(C)n2)c1OC [CPD-136, N1-((S)-1-((2S,4R)-4-Hydroxy-2-(((S)-1-(4-(4-methylthiazol-5-yl)phenyl)ethyl)carbamoyl)pyrrolidin-1-yl)-3,3-dimethyl-1-oxobutan-2-yl)-N5-((6-((5-((2-methoxy-3-(1-methyl-1H-1,2,4-triazol-3-yl)phenyl)amino)-6-(methylcarbamoyl)pyridazin-3-yl)amino)pyridin-3-yl)methyl)glutaramide]	B (B: <60% TYK2 degradation, and >20% TYK2 degradation)	A (A: ≥60% TYK2 degradation)	
CNC(=O)c1nnc(Nc2ccc(N3CCN(CCCCCCCC(=O)N[C@H](C(=O)N4C[C@H](O)C[C@H]4C(=O)N[C@@H](C)c4ccc(-c5scnc5C)cc4)C(C)(C)C)CC3)cn2)cc1Nc1cccc(-c2ncn(C)n2)c1OC [CPD-113, 6-((5-(4-(8-(((S)-1-((2S,4R)-4-Hydroxy-2-(((S)-1-(4-(4-methylthiazol-5-yl)phenyl)ethyl)carbamoyl)pyrrolidin-1-yl)-3,3-dimethyl-1-oxobutan-2-yl)amino)-8-oxooctyl)piperazin-1-yl)pyridin-2-yl)amino)-4-((2-methoxy-3-(1-methyl-1H-1,2,4-triazol-3-yl)phenyl)amino)-N-methylpyridazine-3-carboxamide]	B (B: <60% TYK2 degradation, and >20% TYK2 degradation)	A (A: ≥60% TYK2 degradation)	
